Legend:
Monocyte [1] = assay: Compound was tested for inhibition of LTC4 release in the human monocytic cell line; NI means no inhibition observed; type: functional, cell-based
[2] = biological target: T1, Polyunsaturated fatty acid 5-lipoxygenase (Homo sapiens) (UniProt P09917); assay: Compound was tested for inhibition of 5-lipoxygenase at 50 uM; NI means no inhibition was observed
T1 sequence (whole entry): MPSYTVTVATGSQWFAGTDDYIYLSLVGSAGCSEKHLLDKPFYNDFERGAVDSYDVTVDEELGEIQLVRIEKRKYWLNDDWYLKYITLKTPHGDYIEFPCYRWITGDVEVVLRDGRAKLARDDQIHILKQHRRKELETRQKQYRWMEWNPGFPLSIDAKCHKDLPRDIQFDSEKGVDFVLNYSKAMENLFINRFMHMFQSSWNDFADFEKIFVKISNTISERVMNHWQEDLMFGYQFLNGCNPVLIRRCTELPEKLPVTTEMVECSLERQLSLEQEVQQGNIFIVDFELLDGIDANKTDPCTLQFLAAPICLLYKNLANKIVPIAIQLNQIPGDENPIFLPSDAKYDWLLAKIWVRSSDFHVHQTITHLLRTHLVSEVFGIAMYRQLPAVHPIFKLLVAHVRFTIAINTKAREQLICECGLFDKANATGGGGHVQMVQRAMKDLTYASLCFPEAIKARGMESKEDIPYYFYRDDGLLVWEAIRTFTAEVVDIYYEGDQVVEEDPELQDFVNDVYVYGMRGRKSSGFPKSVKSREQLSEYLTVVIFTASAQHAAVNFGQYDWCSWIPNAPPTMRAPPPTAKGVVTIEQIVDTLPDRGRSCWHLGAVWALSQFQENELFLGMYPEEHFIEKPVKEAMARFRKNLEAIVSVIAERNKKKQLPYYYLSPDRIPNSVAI

Monocyte [3] = assay: Compound was tested for inhibition of LTC4 release in the human monocytic cell line at 30 uM; type: functional

| SMILES | inhibition (Monocyte [1]) | inhibition [2] | inhibition at 30 µM (Monocyte [3]) [%] |
| --- | --- | --- | --- |
| CCCCCCCCCCCCC(=O)NC(COCCC)COP(=O)(O)OCCO (centres undefined) | No inhibition | – | – |
| CCCCCCCCOC[C@H](COP(=O)(O)OCCN)OP(=O)(O)CCCCCCC | No inhibition | – | – |
| CCCCCCCCCCCCCCCCCCOCC(CCc1nnn[nH]1)NC(C)=O (centres undefined) | – | No inhibition | 75 |

Reference: ChEMBL document CHEMBL1130442, “Tetrazole is an effective Sn-3 phosphate replacement in substrate analog inhibitors of 14 kDa phospholipase A2” (Bioorg Med Chem Lett, 1997)
